Test results reported in PMC12336229, “Peptide-mimetics derived from leucyl-tRNA synthetase are potential agents for the therapy of mt-tRNA related diseases” (Frontiers in Pharmacology, 2025).

How the values were obtained:
[1] = Plasma stability (UPLC-MS); format: in vitro ADME, human; details: 37°C
Protocol: To assess whether the β32_33 peptide, PMT, PMT-8a and PMT-8b peptide-mimetics are stable in blood, we set up a chromatographic assay able to evaluate compound concentration after incubation in human plasma.
Four different samples from healthy volunteers were used. Blood was drawn by venepuncture in vacutainer containing EDTA as an anticoagulant. Plasma was separated by centrifugation and immediately used for the experiments. Each compound was dissolved in 500 μL plasma at a final concentration of 0.2 mM and split into two aliquots, one of which was immediately analysed to assess the basal compound level (T0); the other was incubated at 37°C under gentle shaking, and the amount of each compound was measured at different time points (i.e., 1.5, 3, 6 and 72 h).
To perform chromatographic analyses, the samples were treated with 3 volumes of acetonitrile containing 1% formic acid and then extracted by using the Ostro™ pass-through sample preparation system to remove proteins and phospholipids. Samples were dried under vacuum, resuspended in 100 μL of 0.1% formic acid containing 5% acetonitrile, and then injected directly onto the chromatographic column.
Chromatographic analyses were performed on a Water Acquity H-Class UPLC system (Waters, Milford, MA, United States), including a quaternary solvent manager (QSM), a sample manager with a flow-through needle system (FTN), a photodiode array detector (PDA) and a single-quadruple mass detector with electrospray ionization source (ACQUITY QDa). Analyses were performed on a reverse phase C18 column (75 mm × 3.2 mm i. d., 2.5 μm particle size). The mobile phase was solvent A, 0.1% formic acid in water, and solvent B, 0.1% formic acid in acetonitrile. The flow rate was 0.5 mL/min, the column temperature was set at 25°C and the elution was performed by linearly increasing the concentration of solvent B up to 70% in 7 min. Mass spectrometric detection was performed in the positive electrospray ionization mode, using nitrogen as the nebulizer gas. Analyses were performed in the Total Ion Current (TIC) mode with a mass range of 100–1200 m/z. The capillary voltage was 0.8 kV, cone voltage 8 V, ion source temperature 120°C and probe temperature 600°C. Quantification was performed by Selected Ion Recording (SIR): at m/z = 917.88, corresponding to the [M+2H]^2+ ion obtained from either β32_33 peptide or PMT; at m/z = 961.42, corresponding to the [M + H] ^+ obtained from PMT-8a; and at m/z = 869.48, corresponding to the [M + H]^+ ion obtained from PMT-8b.

[2] = system: mutant cybrids; experiment: Confocal fluorescence microscopy, co-localization with mitochondria (Mitotracker Red); format: cell-based, human
Protocol: (§1) Previously established osteosarcoma-derived (143B.TK-) cybrid cell lines from patients, which bear either the m.3243A>G mutation in mt-tRNA^Leu(UUR) or the m.8344A>G mutation in mt-tRNA^Lys and controls ([Perli et al., 2014]; [Perli et al., 2016]; [Perli et al., 2020]) were used.
Constructs made of compounds listed in Table 1, comprising D-peptides linked to the Cy5 fluorophore via maleimide cross-linker, were administered to sub-confluent cybrid cell cultures at 0.25 µM in glucose medium. About 24 h after treatment with each construct, cells were incubated with 200 nM Mitotracker Red FM (LifeTechnologies Italia, Monza, Italy) for 30 min at 37°C.
Subsequently, cells were visualized by confocal microscopy. Images of 800 × 800 px (at 88 nm/px) were acquired at the Olympus iX83 FluoView1200 laser scanning confocal microscope using a 60 × NA1,35 oil objective (Olympus Italia SRL Milano, Italy), zoom 3×, 559 nm, and 635 nm lasers and filter setting for Mitotracker Red and Cy5. The fluorescence images were analysed with the ImageJ software ([Rasband, 2018]) to determine the Pearson’s correlation coefficient.
For a subset of experiments, we evaluated the mt localization of constructs up to 72 h after treatment. PMT and PMT fragments were administered to sub-confluent cybrids at a concentration of 0.25 µM in the glucose medium. At 24-, 48- and 72-h after treatment, cells were incubated with Mitotracker Red and visualized by confocal microscopy. After each confocal imaging section, a fresh glucose medium was added to the cells, which were maintained under standard conditions (a humidified atmosphere of 95% air and 5% CO2 at 37°C).

[3] = system: m.8344A>G mutant cybrids (H-8344); experiment: Respirometry assay, oxygen consumption rate (Clark type oxygen electrode); format: cell-based, human; details: 5 µM; after 36 h of treatment; compared with vehicle mutant cells
Protocol: as §1
(§2) Oxygen consumption rate (OCR) of cybrids was evaluated with Clark type oxygen electrode (Hansatech Instruments, Norfolk, United Kingdom). After cybrid incubation with compounds at 5 µM concentration, both control and mutant cybrids were maintained in glucose medium for 36 h, then OCR was measured in intact cells (3 × 10^6) in 1 mL DMEM lacking glucose supplemented with […].

[4] = system: m.3243A>G mutant cybrids; experiment: as above; format: cell-based, human; details: 5 µM; after 36 h of treatment; compared with vehicle mutant cells
Protocol: as §1, §2

[5] = system: control cells (WT and L-8344 cybrids); experiment: as above; format: cell-based, human; details: after 36 h, treated/vehicle ratio
Protocol: as §1, §2

SMILES: CC[C@@H](C)[C@@H](NC(=O)[C@@H](CC(C)C)NC(=O)[C@@H](C)NC(=O)[C@H](NC(=O)[C@@H](CCCNC(=N)N)NC(=O)[C@H]1CCCN1C(=O)[C@@H](CO)NC(=O)[C@@H](CC(C)C)NC(=O)[C@@H](Cc1ccccc1)NC(=O)[C@@H](CO)NC(=O)[C@@H](CCCCN)NC(=O)[C@H](N)CCCCN)[C@H](C)O)C(=O)N[C@H](CC(N)=O)C(=O)N[C@H](Cc1ccccc1)C(=O)N[C@H](CC(C)C)C(=O)N[C@@H](C(N)=O)C(C)C [PMT]
- remaining at 72 h, 0.2 mM ([1]; 72 h, human EDTA plasma from four healthy volunteers, gentle shaking, UPLC-MS (SIR), peak area vs time 0, read-out: Amount of detectable compound after incubation with human plasma): ~25%
- Plasma stability compared with β32_33 peptide ([1]; all time points (1.5, 3, 6, 72 h), human plasma, 0.2 mM, UPLC-MS): significantly higher plasma stability
- Pearson's correlation coefficient (PCC), mt localization ([2]; Cy5 constructs 0.25 µM in glucose medium, imaged after 24 h, Mitotracker Red, mean ± SEM of at least five images): 0.83 ± 0.02
- Mitochondrial localization over time ([2]; Cy5 constructs 0.25 µM, imaged after 24, 48 and 72 hours): colocalize with mitochondria up to 72 hours
- Oxygen consumption rate [3]: significant increase
- Oxygen consumption rate [4]: significant increase
- Oxygen consumption of control cells [5]: do not affect
